Test results: ChEMBL document CHEMBL3885861, “Open TG-GATES”

Species on record: Rattus norvegicus
Assay: Open TG-GATES - Regimen: Daily Repeat
Assay type: toxicity, organism-based, Sprague-Dawley
Set-up: regimen Daily Repeat, gender Male, age 6 weeks
Settings: in vivo, po, route gavage; for APTT / Bas / Eos / Fbg / Hb / Ht / Lym / MCH / MCHC / MCV / Mono / Neu / PT / Plat / RBC / Ret / WBC: tissue Blood; for KIDNEY_L / KIDNEY_R / KIDNEY_TOTAL: tissue Kidney; for LIVER: tissue Liver; for A/G / ALP / ALT / AST / BUN / CRE / Ca / Cl / DBIL / GLC / IP / K / LDH / Na / PL / RALB / TBIL / TC / TG / TP / gamma-GTP: tissue Plasma
[1] = 300 mg/kg, 72 h, dose level Middle, time 3 day
[2] = 300 mg/kg, […], dose level Middle, time 7 day
[3] = 300 mg/kg, […], dose level Middle, time 14 day
[4] = 300 mg/kg, […], dose level Middle, time 28 day
[5] = 1000 mg/kg, 72 h, dose level High, time 3 day
[6] = 1000 mg/kg, […], dose level High, time 7 day
[7] = 1000 mg/kg, […], dose level High, time 14 day
[8] = 1000 mg/kg, […], dose level High, time 28 day

## Cc1nnc2n1-c1ccc(Cl)cc1C(c1ccccc1Cl)=NC2 [TRIAZOLAM]
[1]
  TERMINAL_BW: 220.9 g
  APTT: 25.7 s
  Bas: 0.2%
  Eos: 1%
  Fbg: 302 mg/dL
  Hb: 13.8 g/dL
  Ht: 41.2%
  Lym: 78.6%
  MCH: 21.6 pg
  MCHC: 33.4%
  MCV: 64.4 fL
  Mono: 3.2%
  Neu: 16.2%
  PT: 12.8 s
  Plat: 108.5 x10_4/uL
  RBC: 639.2 x10_4/ul
  Ret: 6.8%
  WBC: 124.2 x10_2/uL
  KIDNEY_L: 1 g
  KIDNEY_R: 1 g
  KIDNEY_TOTAL: 1.9 g
  LIVER: 10.9 g
  A/G: 0.9
  ALP: 1522.4 IU/L
  ALT: 53.4 IU/L
  AST: 74.4 IU/L
  BUN: 14.6 mg/dL
  CRE: 0.2 mg/dL
  Ca: 11.1 mg/dL
  Cl: 104.2 meq/L
  DBIL: 0.014 mg/dL
  GLC: 176.8 mg/dL
  IP: 8.2 mg/dL
  K: 3.9 meq/L
  LDH: 104.8 IU/L
  Na: 141.6 meq/L
  PL: 155 mg/dL
  RALB: 2.6 g/dL
  TBIL: 0.048 mg/dL
  TC: 81 mg/dL
  TG: 82 mg/dL
  TP: 5.6 g/dL
  gamma-GTP: 1 IU/L
[2]
  TERMINAL_BW: 262.7 g
  APTT: 19.2 s
  Bas: 0%
  Eos: 1%
  Fbg: 262.6 mg/dL
  Hb: 13.6 g/dL
  Ht: 40.5%
  Lym: 76.6%
  MCH: 21.4 pg
  MCHC: 33.6%
  MCV: 63.6 fL
  Mono: 3.4%
  Neu: 18.6%
  PT: 12.8 s
  Plat: 124.7 x10_4/uL
  RBC: 637.8 x10_4/ul
  Ret: 7%
  WBC: 119.6 x10_2/uL
  KIDNEY_L: 1.1 g
  KIDNEY_R: 1.1 g
  KIDNEY_TOTAL: 2.2 g
  LIVER: 12.6 g
  A/G: 0.9
  ALP: 1686 IU/L
  ALT: 53 IU/L
  AST: 75 IU/L
  BUN: 19 mg/dL
  CRE: 0.2 mg/dL
  Ca: 11.1 mg/dL
  Cl: 104.8 meq/L
  DBIL: 0.012 mg/dL
  GLC: 187.2 mg/dL
  IP: 7.5 mg/dL
  K: 4.2 meq/L
  LDH: 84.8 IU/L
  Na: 141.4 meq/L
  PL: 162.8 mg/dL
  RALB: 2.6 g/dL
  TBIL: 0.038 mg/dL
  TC: 79 mg/dL
  TG: 103.4 mg/dL
  TP: 5.7 g/dL
  gamma-GTP: 1 IU/L
[3]
  TERMINAL_BW: 306.6 g
  APTT: 17.8 s
  Bas: 0.4%
  Eos: 1%
  Fbg: 245.8 mg/dL
  Hb: 14.1 g/dL
  Ht: 43.1%
  Lym: 76%
  MCH: 19.9 pg
  MCHC: 32.8%
  MCV: 60.8 fL
  Mono: 2.2%
  Neu: 19.4%
  PT: 13.5 s
  Plat: 113 x10_4/uL
  RBC: 710 x10_4/ul
  Ret: 4.9%
  WBC: 121.8 x10_2/uL
  KIDNEY_L: 1.2 g
  KIDNEY_R: 1.2 g
  KIDNEY_TOTAL: 2.4 g
  LIVER: 13.4 g
  A/G: 0.8
  ALP: 1485.8 IU/L
  ALT: 43 IU/L
  AST: 73 IU/L
  BUN: 15 mg/dL
  CRE: 0.2 mg/dL
  Ca: 10.8 mg/dL
  Cl: 104.6 meq/L
  DBIL: 0.008 mg/dL
  GLC: 182.2 mg/dL
  IP: 7.2 mg/dL
  K: 4.1 meq/L
  LDH: 87.4 IU/L
  Na: 142.8 meq/L
  PL: 140 mg/dL
  RALB: 2.6 g/dL
  TBIL: 0.036 mg/dL
  TC: 67.2 mg/dL
  TG: 105.4 mg/dL
  TP: 5.7 g/dL
  gamma-GTP: 1.2 IU/L
[4]
  TERMINAL_BW: 407.3 g
  APTT: 18.4 s
  Bas: 0%
  Eos: 1.2%
  Fbg: 262.4 mg/dL
  Hb: 15.3 g/dL
  Ht: 45.6%
  Lym: 82%
  MCH: 19.3 pg
  MCHC: 33.6%
  MCV: 57.5 fL
  Mono: 1.4%
  Neu: 14.2%
  PT: 13.6 s
  Plat: 106.2 x10_4/uL
  RBC: 793.4 x10_4/ul
  Ret: 2.3%
  WBC: 88.2 x10_2/uL
  KIDNEY_L: 1.4 g
  KIDNEY_R: 1.4 g
  KIDNEY_TOTAL: 2.8 g
  LIVER: 15.8 g
  A/G: 0.8
  ALP: 1211.8 IU/L
  ALT: 36.4 IU/L
  AST: 67.8 IU/L
  BUN: 16.8 mg/dL
  CRE: 0.3 mg/dL
  Ca: 10.7 mg/dL
  Cl: 105 meq/L
  DBIL: 0.012 mg/dL
  GLC: 186.4 mg/dL
  IP: 6.2 mg/dL
  K: 4.1 meq/L
  LDH: 82.2 IU/L
  Na: 142 meq/L
  PL: 145.8 mg/dL
  RALB: 2.7 g/dL
  TBIL: 0.058 mg/dL
  TC: 70.6 mg/dL
  TG: 110.8 mg/dL
  TP: 6.2 g/dL
  gamma-GTP: 1 IU/L
[5]
  TERMINAL_BW: 221.7 g
  APTT: 18.3 s
  Bas: 0.2%
  Eos: 1%
  Fbg: 278.6 mg/dL
  Hb: 13.8 g/dL
  Ht: 41.1%
  Lym: 78.2%
  MCH: 21.3 pg
  MCHC: 33.6%
  MCV: 63.4 fL
  Mono: 3.6%
  Neu: 16%
  PT: 13 s
  Plat: 124.4 x10_4/uL
  RBC: 650.2 x10_4/ul
  Ret: 6.4%
  WBC: 105.8 x10_2/uL
  KIDNEY_L: 1 g
  KIDNEY_R: 1 g
  KIDNEY_TOTAL: 1.9 g
  LIVER: 10.9 g
  A/G: 0.9
  ALP: 1527.4 IU/L
  ALT: 56 IU/L
  AST: 67.4 IU/L
  BUN: 14.4 mg/dL
  CRE: 0.2 mg/dL
  Ca: 11.5 mg/dL
  Cl: 102.8 meq/L
  DBIL: 0.016 mg/dL
  GLC: 167 mg/dL
  IP: 9.1 mg/dL
  K: 4.2 meq/L
  LDH: 98.4 IU/L
  Na: 141.6 meq/L
  PL: 157 mg/dL
  RALB: 2.6 g/dL
  TBIL: 0.048 mg/dL
  TC: 81.2 mg/dL
  TG: 84.2 mg/dL
  TP: 5.6 g/dL
  gamma-GTP: 1 IU/L
[6]
  TERMINAL_BW: 254.6 g
  APTT: 17.8 s
  Bas: 0%
  Eos: 1%
  Fbg: 282.6 mg/dL
  Hb: 13.7 g/dL
  Ht: 40.7%
  Lym: 74%
  MCH: 20.9 pg
  MCHC: 33.6%
  MCV: 62.1 fL
  Mono: 2.6%
  Neu: 21.6%
  PT: 12.8 s
  Plat: 129.1 x10_4/uL
  RBC: 656.2 x10_4/ul
  Ret: 5.5%
  WBC: 113.3 x10_2/uL
  KIDNEY_L: 1.1 g
  KIDNEY_R: 1.1 g
  KIDNEY_TOTAL: 2.3 g
  LIVER: 12.4 g
  A/G: 0.9
  ALP: 1848.4 IU/L
  ALT: 47.2 IU/L
  AST: 67.2 IU/L
  BUN: 15.8 mg/dL
  CRE: 0.2 mg/dL
  Ca: 11.2 mg/dL
  Cl: 105 meq/L
  DBIL: 0.014 mg/dL
  GLC: 176.6 mg/dL
  IP: 7.4 mg/dL
  K: 4.7 meq/L
  LDH: 86.2 IU/L
  Na: 142 meq/L
  PL: 160.8 mg/dL
  RALB: 2.7 g/dL
  TBIL: 0.032 mg/dL
  TC: 78.6 mg/dL
  TG: 108.2 mg/dL
  TP: 5.7 g/dL
  gamma-GTP: 1 IU/L
[7]
  TERMINAL_BW: 312.6 g
  APTT: 18.3 s
  Bas: 0.4%
  Eos: 1%
  Fbg: 249.6 mg/dL
  Hb: 14.2 g/dL
  Ht: 43.5%
  Lym: 78.6%
  MCH: 20 pg
  MCHC: 32.6%
  MCV: 61.2 fL
  Mono: 2.6%
  Neu: 16.8%
  PT: 13.3 s
  Plat: 123.4 x10_4/uL
  RBC: 711.4 x10_4/ul
  Ret: 5.3%
  WBC: 135.4 x10_2/uL
  KIDNEY_L: 1.3 g
  KIDNEY_R: 1.3 g
  KIDNEY_TOTAL: 2.5 g
  LIVER: 14.2 g
  A/G: 0.9
  ALP: 1576.6 IU/L
  ALT: 48 IU/L
  AST: 71.6 IU/L
  BUN: 17.8 mg/dL
  CRE: 0.2 mg/dL
  Ca: 10.8 mg/dL
  Cl: 103.6 meq/L
  DBIL: 0.01 mg/dL
  GLC: 188.4 mg/dL
  IP: 7.7 mg/dL
  K: 4.1 meq/L
  LDH: 112.2 IU/L
  Na: 141.8 meq/L
  PL: 157.6 mg/dL
  RALB: 2.6 g/dL
  TBIL: 0.036 mg/dL
  TC: 74.8 mg/dL
  TG: 127.4 mg/dL
  TP: 5.7 g/dL
  gamma-GTP: 1 IU/L
[8]
  TERMINAL_BW: 383.1 g
  APTT: 18.3 s
  Bas: 0.2%
  Eos: 1.4%
  Fbg: 273 mg/dL
  Hb: 15.3 g/dL
  Ht: 45.2%
  Lym: 76.2%
  MCH: 19.7 pg
  MCHC: 33.9%
  MCV: 58.2 fL
  Mono: 2.2%
  Neu: 18.4%
  PT: 13.2 s
  Plat: 112.9 x10_4/uL
  RBC: 776.4 x10_4/ul
  Ret: 2.4%
  WBC: 103.3 x10_2/uL
  KIDNEY_L: 1.4 g
  KIDNEY_R: 1.4 g
  KIDNEY_TOTAL: 2.8 g
  LIVER: 15.2 g
  A/G: 0.8
  ALP: 950 IU/L
  ALT: 41.2 IU/L
  AST: 68.8 IU/L
  BUN: 15.4 mg/dL
  CRE: 0.2 mg/dL
  Ca: 10.5 mg/dL
  Cl: 105.2 meq/L
  DBIL: 0.002 mg/dL
  GLC: 181 mg/dL
  IP: 6 mg/dL
  K: 4 meq/L
  LDH: 75 IU/L
  Na: 142.2 meq/L
  PL: 159.8 mg/dL
  RALB: 2.8 g/dL
  TBIL: 0.046 mg/dL
  TC: 79.8 mg/dL
  TG: 92 mg/dL
  TP: 6.1 g/dL
  gamma-GTP: 1.2 IU/L
